Experimental data: paper PMC5808083, “Carfilzomib resistance due to ABCB1/MDR1 overexpression is overcome by nelfinavir and lopinavir in multiple myeloma” (Leukemia, 2017)
Read-outs that look alike come from different tables or passages of the source.

Assays:
[1] = system: T1, AMO-CFZ clone #7 (depleted ABCB1); assay: cells; parameters: species or system AMO-CFZ clones 1 and 7; Cytotoxicity dose-response of myeloma drugs on AMO-CFZ clones with or without ABCB1, IC50; settings: ABCB1 depleted clone #7
T1 construct: AMO-1 derived, carfilzomib-adapted, clone 7 ABCB1 depleted by CRISPR/Cas9 (subtotal elimination)
Description: (§1) To dissect the role of ABCB1 overexpression for the activity of standard myeloma drugs we compared the cytotoxic effects of such drugs on AMO-CFZ cells with (clone #1) or without such ABCB1 expression (clone 7) (Figure 3c and Supplementary Table S4). To score for good versus poor ABCB1-substrate myeloma drugs, we calculated the ratio of IC50 values between the ABCB1-containing and the ABCB1-deficient clone for each of the myeloma drug. […] (a) Western blot evaluation of the ABCB1 depletion in AMO-CFZ clones obtained by CRISPR/Cas9 genome editing tool. (b) Dose–response of AMO-CFZ clones with depleted ABCB1 to CFZ. Corresponding IC50 values are presented in Supplementary Table S3. (c) Dose–response of selected AMO-CFZ clones 1 and 7 to CFZ and convectional drugs used in the treatment of MM. (d) Dose–response of AMO-CFZ clones 1 and 7 to approved PI or those in clinical development. Corresponding IC50 values are presented in Supplementary Table S4. To directly address the functional role of ABCB1 for CFZ resistance, we eliminated ABCB1 protein in AMO-CFZ cells by CRISPR/Cas9 (for example, clone 7) (Figure 3a). We observed an inverse correlation between the levels of ABCB1 and myeloma cell sensitivity to CFZ (Figure 3b, Supplementary Table S3). […] Overexpressed ABCB1 is therefore a therapeutic target for CFZ-resistant myeloma.

[2] = system: T2, AMO-CFZ clone #1 (upregulated ABCB1); assay: cells; parameters: species or system AMO-CFZ clones 1 and 7; Cytotoxicity dose-response of myeloma drugs on AMO-CFZ clones with or without ABCB1, IC50; settings: ABCB1 upregulated clone #1
T2 construct: AMO-1 derived, carfilzomib-adapted, clone 1 CRISPR/Cas9 clone retaining ABCB1 overexpression
Description: as §1

AMO-CFZ = system: T3, AMO-CFZ; assay: cells; parameters: species or system AMO-1, AMO-BTZ, AMO-CFZ and AMO-CFZ clones #1 and #7; cell viability, MTS tetrazolium (CellTiter 96 AQueous One Solution), continuous treatment; settings: Homo sapiens, AMO1, 48 h
T3 construct: AMO-1 derived, carfilzomib-adapted, ABCB1 overexpressing
Method: (§2) Generation of AMO-CFZ Ub-G67V-GFP cells AMO-CFZ cells were electroporated with a plasmid containing Ub-G76V-GFP [1] (obtained from Nico Dantuma; Addgene plasmid #11941) and subsequently cultured in the presence of selecting antibiotic G418 (500ng/ml, Gibco/Invitrogen, MA, USA). Subclones were obtained using MethoCult (StemCell Technologies, USA) and the clone with highest accumulation of fluorescence after BTZ treatment was chosen for further analysis. Assessment of cell viability Viability of cell lines was determined after 48h of treatment by MTS tetrazolium compound using CellTiter 96® AQueous One Solution) (Promega, WI, USA) according to manufactures protocol. PgP-Glo assay PgP-Glo assay (Promega, WI, USA) was performed according to manufacturer recommendations.  Figure 2 Comparison of dose–response of AMO-1 (sensitive) vs AMO-BTZ and AMO-CFZ (resistant) cells treated with PIs (BTZ and CFZ). (a) Residual activity of proteasome subunits visualized by activity-based probe labeling in intact cells after 1 h pulse treatment with indicated PIs. (b) Cell viability was measured after 48 hours of continuous treatment. Corresponding IC50 values are presented in Supplementary Table S2.  Figure 7 Sensitivity profile of ABCB1 inhibitors co-treatment with PIs used in the clinic or in clinical development in AMO-1, AMO-BTZ and AMO-CFZ cell lines. Dose–response curves of PI co-treated with NFV (10 μM) and LPV (10 μM). Corresponding IC50 values are presented in Supplementary Table S7.

AMO-1 = assay: cells; parameters: species or system AMO-BTZ, AMO-CFZ and AMO-CFZ clones #1 and #7; cell viability, MTS tetrazolium (CellTiter 96 AQueous One Solution), continuous treatment; settings: Homo sapiens, AMO1, 48 h
Method: as §2, with “recommendations.” for “recommendations. ”, “S2.” for “S2. ”, “Dose–response curves of PI co-treated with NFV (10 μM) and LPV (10 μM). Corresponding IC50 values are presented in Supplementary Table S7.” left out

AMO-BTZ = system: T4, AMO-BTZ; assay: cells; parameters: species or system AMO-1, AMO-CFZ and AMO-CFZ clones #1 and #7; cell viability, MTS tetrazolium (CellTiter 96 AQueous One Solution), continuous treatment; settings: Homo sapiens, AMO1, 48 h
T4 construct: AMO-1 derived, bortezomib-adapted
Method: as §2, with “recommendations.” for “recommendations. ”, “S2.” for “S2. ”, “Dose–response curves of PI co-treated with NFV (10 μM) and LPV (10 μM). Corresponding IC50 values are presented in Supplementary Table S7.” left out

[3] = system: T2, AMO-CFZ clone #1 (upregulated ABCB1); assay: cells; parameters: species or system AMO-1, AMO-BTZ, AMO-CFZ and AMO-CFZ clones #1 and #7; cell viability, MTS tetrazolium (CellTiter 96 AQueous One Solution), continuous treatment; settings: Homo sapiens, AMO1, 48 h; CFZ alone
Method: as §2

[4] = system: T2, AMO-CFZ clone #1 (upregulated ABCB1); assay: cells; parameters: species or system AMO-1, AMO-BTZ, AMO-CFZ and AMO-CFZ clones #1 and #7; cell viability, MTS tetrazolium (CellTiter 96 AQueous One Solution), continuous treatment; settings: Homo sapiens, AMO1, 48 h; CFZ alone; remark: listed apart in the source
Method: as §2, with “recommendations.” for “recommendations. ”, “S2.” for “S2. ”, “Dose–response curves of PI co-treated with NFV (10 μM) and LPV (10 μM). Corresponding IC50 values are presented in Supplementary Table S7.” left out

ABCB1 = ABCB1 (Homo sapiens, UniProt P08183); assay: MitoTracker Green FM and MVB003 efflux (flow cytometry) in ABCB1-overexpressing AMO-CFZ cells
Chain of ABCB1 (P08183 whole entry): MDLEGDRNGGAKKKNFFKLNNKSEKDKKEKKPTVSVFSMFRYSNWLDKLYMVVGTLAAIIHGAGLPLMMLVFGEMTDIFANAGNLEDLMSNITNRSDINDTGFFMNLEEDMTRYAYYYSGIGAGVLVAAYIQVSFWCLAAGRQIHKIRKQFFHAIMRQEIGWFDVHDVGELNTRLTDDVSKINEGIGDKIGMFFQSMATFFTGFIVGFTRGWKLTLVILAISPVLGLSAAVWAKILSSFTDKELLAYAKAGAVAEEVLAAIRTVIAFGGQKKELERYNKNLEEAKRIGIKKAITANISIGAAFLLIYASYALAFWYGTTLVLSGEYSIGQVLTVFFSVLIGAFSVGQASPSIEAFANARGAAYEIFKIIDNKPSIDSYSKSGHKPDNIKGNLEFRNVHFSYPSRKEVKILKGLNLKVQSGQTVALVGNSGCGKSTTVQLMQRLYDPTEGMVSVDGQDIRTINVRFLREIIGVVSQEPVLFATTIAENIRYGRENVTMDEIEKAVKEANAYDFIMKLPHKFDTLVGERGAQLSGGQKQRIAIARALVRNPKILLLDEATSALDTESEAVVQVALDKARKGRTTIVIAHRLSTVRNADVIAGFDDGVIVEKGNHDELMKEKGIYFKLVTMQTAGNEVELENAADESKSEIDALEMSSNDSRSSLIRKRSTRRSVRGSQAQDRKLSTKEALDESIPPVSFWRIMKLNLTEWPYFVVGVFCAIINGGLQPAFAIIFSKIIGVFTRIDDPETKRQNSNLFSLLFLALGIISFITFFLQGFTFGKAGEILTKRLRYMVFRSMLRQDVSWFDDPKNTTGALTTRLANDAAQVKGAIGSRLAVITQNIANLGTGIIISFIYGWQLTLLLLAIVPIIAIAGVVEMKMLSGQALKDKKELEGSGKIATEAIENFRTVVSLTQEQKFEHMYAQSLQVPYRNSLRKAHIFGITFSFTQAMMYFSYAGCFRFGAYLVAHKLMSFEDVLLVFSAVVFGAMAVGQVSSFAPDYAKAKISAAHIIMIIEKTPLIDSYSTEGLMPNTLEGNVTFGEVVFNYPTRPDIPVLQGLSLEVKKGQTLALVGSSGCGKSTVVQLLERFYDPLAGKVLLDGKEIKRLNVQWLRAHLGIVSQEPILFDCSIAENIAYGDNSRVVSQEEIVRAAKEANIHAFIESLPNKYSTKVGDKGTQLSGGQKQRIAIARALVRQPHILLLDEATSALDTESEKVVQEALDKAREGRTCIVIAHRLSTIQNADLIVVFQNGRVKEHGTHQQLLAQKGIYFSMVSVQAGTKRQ

Row | Compound | IC50 [1] [nM] | IC50 [2] [nM] | IC50 (AMO-CFZ; PI alone) [nM] | also measured
1 | Cc1[nH]c2ccccc2c1CCNCc1ccc(/C=C/C(=O)NO)cc1 [Panobinostat] | 49.5 | 220 | – | –
2 | CC(C)C[C@H](NC(=O)[C@H](Cc1ccccc1)NC(=O)c1cnccn1)B(O)O [BTZ, bortezomib] | 26.8 | 69.3 | 156 | IC50 (AMO-CFZ; read-out: BTZ): 89.3 nM; IC50 (AMO-1; read-out: BTZ): 6.3 nM; IC50 (AMO-BTZ; read-out: BTZ): 1340 nM
3 | COC[C@H](NC(=O)c1cnc(C)s1)C(=O)N[C@@H](COC)C(=O)N[C@@H](Cc1ccccc1)C(=O)[C@@]1(C)CO1 [Oprozomib] | 221 | 1470 | 1320 | –
4 | CC(C)C[C@H](NC(=O)CNC(=O)c1cc(Cl)ccc1Cl)B(O)O [Ixazomib] | 345 | 692 | 1280 | –
5 | CC(C)C[C@H](NC(=O)[C@H](CCc1ccccc1)NC(=O)CN1CCOCC1)C(=O)N[C@@H](Cc1ccccc1)C(=O)N[C@@H](CC(C)C)C(=O)[C@@]1(C)CO1 [CFZ, carfilzomib] | 78.5 | 613 | – | IC50 (AMO-CFZ; read-out: CFZ): 892 nM; IC50 [3]: 824 nM; IC50 (AMO-1; read-out: CFZ): 4.8 nM; IC50 (AMO-BTZ; read-out: CFZ): 67.2 nM; IC50 [4]: 796 nM
6 | COC(=O)[C@H]1[C@H]2C[C@@H]3c4[nH]c5cc(OC)ccc5c4CCN3C[C@H]2C[C@@H](OC(=O)c2cc(OC)c(OC)c(OC)c2)[C@@H]1OC [RSP, reserpine] | – | – | – | MitoTracker Green FM and MVB003 efflux (flow cytometry) in ABCB1-overexpressing (ABCB1): Addition of VPM or reserpine (RSP) in the micromolar range led to a sizable, dose-dependent increase in cellular fluorescence
7 | C[C@@]12OC(=O)[C@]1([C@@H](O)[C@@H]1C=CCCC1)NC(=O)[C@@H]2CCCl [Marizomib] | 32.9 | 61.4 | – | –
8 | CC(C)C[C@H](NC(=O)[C@@H](NC(=O)c1cccc(-c2ccccc2)n1)[C@@H](C)O)B(O)O [Delanzomib] | 80.5 | 294 | 1040 | –
